Laboratory results taken from patent publication US10668048B2, “Compounds for inhibiting bacterial growth via phosphatidylglycerol binding” (Wichita State University, priority 2016, dated 2020).

Experiments:
E. Coli (JMR 223-MC4100) = test: MIC in LB culture; format: cell-based; conditions: overnight 37° C.
Procedure: An E. Coli (JMR 223-MC4100) plate was grown up overnight in LB agar at 37° C. A good colony was selected and added to 5 mL LB growth media. This was incubated at 37° C. with shaking at 250 rpm until the solution reaches an OD of at least 0.5 or higher at 600 nm. A final solution was diluted 500× to an OD of 0.001, correlating to a CFU of 1×10^6. 5 ml solutions of the diluted bacterial broth were measured out. Liptins were added to make solutions of 20 μM, 15 μM, 10 μM, 5 μM, 4 μM, 3 μM, 2 μM, and 1 μM (This means adding 0.2 mL, 0.15 mL, 0.1 mL, 0.05 mL, 0.04 mL, 0.03 mL, 0.02 mL, 0.01 mL of the 500 μM solution). Cultures were allowed to incubate overnight at 37° C. with shaking at 250 rpm. The following day, cultures were analyzed to evaluate the presence or absence of bacterial growth by spectrophotometry at 600 nm (0.66 mg of liptin in 0.95 mL of water; 0.15 OD Diluted 150× to OD of 0.001). […] Growth was not observed in the 2 μM and up solutions. See FIGS. 11A-11B for a visual image of the E. coli cultures.

[1] = system: E. coli BL 21 (Tuner pLysS); test: Tetracycline-induced YqhD expression, gel electrophoresis; format: cell-based; conditions: 10 μM
[2] = FCS binding of liptin to PG at the membrane interface (liposomes, surfactant vesicles)
Procedure: The porphyrin 3e was used to examine the liptin's affinity and selectivity for PG when PG was present as part of a membrane bilayer. In this example, fluorescence correlation spectroscopy (FCS) was used to measure the fraction of liptin bound to surfactant vesicles or liposomes containing a known amount of PG. This approach is fast, reliable and accurate, and is possible when the liptin is a stable fluorophore, as in the case of 3e.
FCS results are evaluated by treating the time dependent fluorescence intensity acquired from a dilute solution of the liptin using a focused laser beam as the excitation source. Temporal fluctuations in the fluorescence intensity are a result of the diffusion of the liptin through the focused laser beam. When the liptin binds to a vesicle, its apparent diffusion coefficient decreases by two orders of magnitude.
FIG. panels 9A and 9C contain examples of autocorrelation decays for liptin 3e in with liposomes (FIG. 9A) and surfactant vesicles (FIG. 9C) containing varying amounts of PG. Specifically, FIG. 9 illustrates an autocorrelation analysis of liptin 3e binding to PG-doped membranes of liposomes and positively-charged surfactant vesicles. A) Autocorrelation decays for liptin with varying percentages of PG in PE liposome. B) Binding constant values as a function of PS and PG in PE liposome. C) Autocorrelation decays for liptin with varying percentages of PG in positively-charged surfactant vesicles. D) Binding constant of liptin with varying percentages of PG in positively-charged surfactant vesicles. […] In FIGS. 9A and 9C, the markers are the experimental data and the solid lines are the fits that determine the fraction of liptin bound, f. This quantity is then used to calculate the binding constant:
[formula] where [R] is the total concentration of […], and it has been assumed that half of the PG is located on the membrane inner leaflet and thus not available for binding.

[3] = system: HepG2 human hepatocyte cells; test: Hepatocyte toxicity, MTT assay; format: cell-based; conditions: 9-12 hours; down to 0.5 μM
Procedure: Toxicity of compounds to eukaryotic cells was assessed by MTT assay of cultured HepG2 human hepatocyte cells grown in media supplemented with 10% fetal bovine serum and antibiotics.
Human liver HepG2 cells were cultured in 100 mm^2 Falcon tissue culture plates in DMEM with high glucose (4500 mg/L) supplemented with 10% fetal bovine serum, 50 μg/ml streptomycin and 50 IU/ml penicillin at 37° C. and 5% CO2. Cells were cultured to about 70-80% confluence, and then seeded into 96 well plates depending and grown to 70-80% confluence for 2-3 days unless otherwise stated.
Cell viability was determined by MTT [3-(4,5-dimethylthiazol-2-yl)-2,5-diphenyltetrazolium bromide)] assay (Denizot & Lang 1986). Briefly, cells were seeded on 96-well plates and allowed to grow until 70-80% confluence. Prior to the experiment, medium was replaced with KRB containing a desired concentration of the toxin or other reagents and incubated for 9 h to 12 h depending on the experiment at 37° C. […] The resulting formazan was solubilized by the addition of 210 μL detergent solution (50% DMF, 20% SDS) followed by incubation for 4 h at 37° C. and was quantified based on the difference in the absorbance at 570 nm and 650 nm (Mosmann 1983). Results are expressed as viability of toxin treated cells with respect to control cells which were treated under the same conditions except in the absence of the toxin. […]

E. coli strain MC4100 = test: IPTG-induced PapD overexpression, gel electrophoresis; format: cell-based; conditions: IPTG and 5 μM
Source text: The E. coli strain MC4100 will produce the pili chaperone PapD, a periplasmic protein, when induced by IPTG. […] The left panel represents the periplasmic fraction with lanes running left to right: ladder, NR, C, R, all with no IPTG; NR+IPTG, C+IPTG, R+IPTG (negative control was porphyrin A) or in the cytosol represented in the right panel with lanes running from left to right: NR, C, R, all with no IPTG; ladder, NR+IPTG, C+IPTG, R+IPTG (negative control was porphyrin A). (NR=no liptin, C=control, R=liptin). IPTG gets into the cytoplasm most efficiently via uphil symport via the plasma membrane protein lac permease when the plasma membrane is fully polarized.

[4] = system: Gram-positive, Gram-negative, and Mycobacteria; test: Growth curves in BHI culture with liptin 3e; format: cell-based
Source text: Growth curves were generated from liquid shake-flask cultures using absorbance measurements at 600 nm at different concentrations of liptin 3e. Uninoculated control flasks were used as blanks. Absorbance values of 0.1 OD unit was considered reasonable threshold for positive growth. […] Liptin exposure appears to stop bacterial growth, as evidenced by long lag phases, which increase with liptin concentration. In most cases, cultures recover, but growth rates and maximum cell densities are decreased with liptin treatment.
Bacterial growth rates were reduced by liptin 3e treatment in a concentration-dependent manner. Rates were determined as the slope of the log phase of the growth curve, after the lag phase. An exponential relationship exists with marginally significant differences (p<0.1).
Maximum culture densities represent the carrying capacity of a culture flask.

[5] = E. coli and S. aureus, concentration-dependent

NCC(=O)Nc1ccccc1-c1c2nc(c(-c3ccccc3NC(=O)CN)c3ccc([nH]3)c(-c3ccccc3NC(=O)CN)c3nc(c(-c4ccccc4NC(=O)CN)c4ccc1[nH]4)C=C3)C=C2.O=C(O)C(F)(F)F.O=C(O)C(F)(F)F.O=C(O)C(F)(F)F.O=C(O)C(F)(F)F [Liptin 3e]
MIC (E. Coli (JMR 223-MC4100)): 1 to 2 µM | protein synthesis [1]: most protein synthesis was effectively disrupted | PG binding affinities at the membrane interface ([2]; FCS): ~10^4 M^−1 | Ka ([2]; Lipid vesicles containing 10-30% PG): 10^4 | selectivity of binding PG vs phosphatidylserine (PS) ([2]; lipid vesicles of binary mixtures of PG or PS with PE): selective for PG over the PS | binding to surfactant vesicle without PG ([2]; no PG, only anionic component sodium dodecylbenzenesulfonate (SDBS)): Negligible binding | binding constant ([2]; surfactant vesicle with 1% of PG and 35% SDBS): 47000 M⁻¹ | toxicity (cell viability, MTT) [3]: lack of toxicity | PapD in periplasmic space or cytosol (E. coli strain MC4100): no PapD was found | bacterial growth rates [4, 5]: reduces bacterial growth rates | maximum culture density [4, 5]: decreases maximum culture density | antibacterial activity from growth curves ([4]; one inoculation, BHI): highly bacteriostatic activity
